Results from publication PMC8962522, “Direct interaction of TrkA/CD44v3 is essential for NGF-promoted aggressiveness of breast cancer cells” (Journal of Experimental & Clinical Cancer Research : CR, 2022).

Test system: CD44v6 in MDA-MB-231 cells
Experiment: Flow cytometry, plasma membrane CD44v6
Type: cell-based
Details: MDA-MB-231, flow cytometry
Source text: The CD44v3- and CD44v6-containing isoforms expressing respectively exon 8 and 11(Fig. 1A) can interact with growth factor receptors. Using COS-7 cells with low CD44 and TrkA expression (Supplementary Fig. 1A-D), we differentially expressed TrkA and CD44s or a CD44 variant, either CD44v3 or CD44v6 (Fig. 1B, supplementary Fig. 2). […] Additionally, we evaluated the expression of TrkA and CD44v3 at the membrane level or in cells by immunofluorescence in MDA-MB-231 cells.
Supplementary file 13046_2022_2314_MOESM3_ESM.pdf: Additional file 3: Supplementary Figure 1. Validation of the ectopic expression of CD44 and/or TrkA in COS-7 cells. The expression of all CD44 isoforms (A), CD44 variant 3 (B), CD44 variant 6 (C) and TrkA ([…]; D) was evaluated by RT–qPCR (normalized using PUM-1). No expression of CD44, CD44 variants [3 or 6] or TrkA was detected in COS-7 cells (A-D) compared with that in cells transfected with the expression plasmid carrying each protein. […] Quantification of the PLA results was performed using ImageJ software (30 randomly chosen fields per condition of three different experiments). […] CD44v3 and CD44v6 levels at the plasma membrane were assessed by flow cytometry (A-D). The plasma membrane and total TrkA and CD44v3 levels were also quantified by confocal microscopy (E-H). […] The CD44v3/NGF interaction was evaluated using microscale thermophoresis (MST). […]

NGF: recombinant human β-NGF (Alomone Labs, Israel)
increase of plasma membrane CD44v6 (CD44v6-APC, histogram with No stim., NGF (5 min), NGF (30 min)): 6%
plasma membrane level of CD44v6 (in words) (NGF stimulation): increased the plasma membrane level of CD44v3 but not CD44v6
